The source of these data is US20180168208A1 (priority 2014, published 2018).

Molecules are shown by their SMILES. Where two headings read alike, the source gives them in different places.

The target in test [1] is T1, T1R1/T1R3 receptor (Felis catus, UniProt E3UMS2). As to the kind of experiment: Example 8: agonist screening of transmembrane compounds on T1R1/T1R3 in HEK293 cells. Particulars: for T1R1/T1R3 agonist: transmembrane compound tested at 0.01, 0.1 and 1 mM, HEK293 cells expressing T1R1/T1R3, intracellular calcium; for agonist profile assessment (agonist activity): transmembrane compound alone. The test is classed as cell-based, cat. On the procedure:
HEK293 cells that stably express T1R3 and inducibly express T1R1 were exposed to a transmembrane compound. Activation of the T1R1/T1R3 receptor was detected by a change in intracellular calcium levels using a calcium sensitive fluorescent dye and/or a luminescent reporter system. […] A FLIPR® Tetra or a FlexStation® 3 was used for data capture.
Each transmembrane compound was tested at concentrations of 0.01 mM, 0.1 mM, and 1 mM. […] To generate the dose response curves, the transmembrane compound was tested at concentrations of between 0.0001 mM and 1.0 mM in the presence of GMP and Ala.
(A change in cytosolic calcium serves as a functional read-out for many receptors and channels.)

Test [2] concerns the target T1, T1R1/T1R3 receptor. As to the kind of experiment: Example 8: PAM screening of transmembrane compounds with GMP and Ala on T1R1/T1R3 in HEK293 cells. Type of test: cell-based, cat. As to conditions: for T1R1/T1R3 PAM: compound at 0.01, 0.1 and 1 mM in combination with GMP+Ala mixtures (T1-T4), PAM if response greater than sum of compound alone and GMP+Ala alone; for PAM profile assessment (PAM activity): in the presence of GMP and Alanine. The text has this:
HEK293 cells that stably express T1R3 and inducibly express T1R1 were exposed to transmembrane compound alone or in combination with Ala and GMP to activate the umami receptor. Activation of the T1R1/T1R3 receptor was detected by a change in intracellular calcium levels using a calcium sensitive fluorescent dye and/or a luminescent reporter system. […] A FLIPR® Tetra or a FlexStation® 3 was used for data capture.
Dose response curves were generated for each transmembrane compound at concentrations of 0 (buffer only), 0.01, 0.1 and 1 mM, wherein each of the three concentrations of transmembrane compound was tested in combination with 0.03 mM GMP+100 mM Ala (T1); 0.6 mM GMP+10 mM Ala (T2); 0.1 mM GMP+60 mM Ala (T3) and 0.3 mM GMP+60 mM Ala (T4). The T4 mixture was also tested in a 2-fold dilution series (the T4(×) Concentration). In these experiments, the first test concentration was 2× (2 times) the T4 concentration. The subsequent test concentrations were 2-fold dilutions from that (1×, 0.5×etc.). This dilution series was tested with or without the addition of the test compound at a constant 0.3 mM concentration.
Activation of the umami receptor was also determined in the presence of 1 mM GMP+100 mM Ala to generate a “maximum” umami receptor activation level.

Test [3] addresses T1, T1R1/T1R3 receptor. Description: cell-based. In outline: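 HEK293 cells stably expressing T1R3 with inducible T1R1 were given transmembrane compounds in serial dilutions up to 10 mM, alone or with amino acids and/or nucleotides. Receptor activation was read as an intracellular calcium change with a calcium-sensitive fluorescent dye; T1R3-only cells served as control.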

As for `O=C(CN1C(=O)C(=O)N(CCc2cccs2)C1=O)c1cccc2ccccc12` [Formula 11, 1-(2-(naphthalen-1-yl)-2-oxoethyl)-3-(2-(thiophen-2-yl)ethyl)imidazolidine-2,4,5-trione], the T1R1/T1R3 agonist result on T1R1/T1R3 receptor [1] was “No”. Further, the “T1R1/T1R3 PAM” value on T1R1/T1R3 receptor [2] is reported as “No”.
In the case of `O=C1C(=O)N(Cc2ccccc2)C(=S)N1Cc1ccccc1` [Formula 13, 1,3-dibenzyl-2-thioxoimidazolidine-4,5-dione], the T1R1/T1R3 agonist result at T1R1/T1R3 receptor [1] is on record as “No”. The “T1R1/T1R3 PAM” value at T1R1/T1R3 receptor [2] is recorded as “No”.
For the molecule `COC(=O)C(NCc1ccccc1)c1ccccc1` (stereo not shown) [Methyl-2-benzylamino-2-phenylacetate], the “agonist profile assessment (agonist activity)” value (from here on “agonist profile assessment”) on T1R1/T1R3 receptor [1] is listed as “agonist”. Besides, the “PAM profile assessment (PAM activity)” value at T1R1/T1R3 receptor [2] is reported as “PAM activity”.
For the molecule `COC(=O)C(NCc1ccccc1)c1ccccc1` (stereo not shown) [Formula 19, Methyl-2-benzylamino-2-phenylacetate], the T1R1/T1R3 agonist result on T1R1/T1R3 receptor [1] is recorded as “Yes”. Further, the “T1R1/T1R3 PAM” value on T1R1/T1R3 receptor [2] was “Yes”.
In the case of `O=C(CN1C(=O)C(=O)N(Cc2ccccc2)C1=O)c1ccc2c(c1)OCCCO2` [Formula 8, 1-benzyl-3-(2-(3,4-dihydro-2H-benzo[b][1,4]dioxepin-7-yl)-2-oxoethyl)imidazolidine-2,4,5-trione], on T1R1/T1R3 receptor [1], the T1R1/T1R3 agonist entry is given as “No”. For the same molecule, the “T1R1/T1R3 PAM” value on T1R1/T1R3 receptor [2] is on record as “Weak PAM”.
In the same order, the values of `O=C(CN1C(=O)C(=O)N(Cc2ccccc2)C1=O)c1ccc(Cl)s1` [Formula 12, 1-benzyl-3-(2-(5-chlorothiophen-2-yl)-2-oxoethyl)imidazolidine-2,4,5-trione] are “No” and “Weak PAM”.
`Cl.N[C@@H](Cc1ccccc1)C(=O)OCc1ccccc1` [L-Phenylalanine benzyl ester hydrochloride]: the “agonist profile assessment” value at T1R1/T1R3 receptor [1] is reported as “agonist”. Also, the “PAM profile assessment (PAM activity)” value at T1R1/T1R3 receptor [2] is recorded as “PAM activity”.
Take `O=C(CN1C(=O)C(=O)N(Cc2ccccc2)C1=O)c1ccccc1` [Formula 1, 1-benzyl-3-(2-oxo-2-phenylethyl)imidazolidine-2,4,5-trione]: the T1R1/T1R3 agonist result at T1R1/T1R3 receptor [1] is “No”. The “T1R1/T1R3 PAM” value at T1R1/T1R3 receptor [2] is “No”.
Turning to `COC(=O)[C@@H](Cc1ccccc1)NCc1ccccc1.Cl` [Formula 16, N-Benzyl-D-Phenylalanine methyl ester hydrochloride], the T1R1/T1R3 agonist result at T1R1/T1R3 receptor [1] is reported as “Yes”. Moreover, on T1R1/T1R3 receptor [2], the “T1R1/T1R3 PAM” value was “Yes”.
For the molecule `O=C(CN1C(=O)C(=O)N(Cc2ccccc2)C1=O)c1ccc2c(c1)CCC2` [Formula 2, 1-benzyl-3-(2-(2,3-dihydro-1H-inden-5-yl)-2-oxoethyl)imidazolidine-2,4,5-trione], on T1R1/T1R3 receptor [1], the T1R1/T1R3 agonist result is listed as “No”. Besides, the “T1R1/T1R3 PAM” value on T1R1/T1R3 receptor [2] was “No”.
Regarding `O=C1CC(=O)N(Cc2ccccc2)C(=O)N1Cc1ccccc1` [1,3-dibenzylpyrimidine-2,4,6(1H,3H,5H)-trione], the “agonist profile assessment” value on T1R1/T1R3 receptor [1] was “agonist activity”. In addition, on T1R1/T1R3 receptor [3], the “Max resp % of IMP, +Alanine (20 mM)” value was 42.7%. Besides, the “Thres (mM), +Alanine (20 mM)” value at T1R1/T1R3 receptor [3] was 0.1 mM. The EC50 is 0.31 mM at T1R1/T1R3 receptor [3] (EC50 (mM), +Alanine (20 mM)); greater than 0.3 mM on T1R1/T1R3 receptor [3] (EC50 (mM), +Alanine (20 mM) + IMP (0.2 mM)); 0.52 mM at T1R1/T1R3 receptor [3] (EC50 (mM), +IMP (0.2 mM), in the presence of 0.2 mM IMP); 0.52 ± 0.19 mM on T1R1/T1R3 receptor [3] (T1R1/T1R3 EC50 +0.2 mM IMP, +0.2 mM IMP); 0.31 ± 0.05 mM on T1R1/T1R3 receptor [3] (T1R1/T1R3 EC50 +20 mM L-alanine); greater than 0.3 mM at T1R1/T1R3 receptor [3] (T1R1/T1R3 EC50 +20 mM L-alanine + 0.2 mM IMP). Moreover, the EC50 at T1R1/T1R3 receptor [3] (alone in buffer, read-out: T1R1/T1R3 EC50 alone in buffer) is 0.26 ± 0.01 mM; on T1R1/T1R3 receptor [3] (compound alone in buffer, read-out: EC50 (mM), +buffer (alone)), 0.26 mM. In addition, the “Max resp % of Ala, +IMP (0.2 mM)” value at T1R1/T1R3 receptor [3] (in the presence of 0.2 mM IMP, relative to alanine) is on record as 35.7%. Moreover, the “Thres (mM), +IMP (0.2 mM)” value at T1R1/T1R3 receptor [3] (threshold concentration in the presence of 0.2 mM IMP) is 0.1 mM.
Take `O=C(CN1C(=O)C(=O)N(CCc2cccs2)C1=O)c1ccc2c(c1)OCO2` [Formula 7, 1-(2-(benzo[d][1,3]dioxol-5-yl)-2-oxoethyl)-3-(2-(thiophen-2-yl)ethyl)imidazolidine-2,4,5-trione]: the T1R1/T1R3 agonist result at T1R1/T1R3 receptor [1] is on record as “No”. Besides, the “T1R1/T1R3 PAM” value at T1R1/T1R3 receptor [2] is “No”.
`COc1ccc(C(=O)CN2C(=O)C(=O)N(Cc3ccccc3)C2=O)c(OC)c1` [Formula 5, 1-benzyl-3-(2-(2,4-dimethoxyphenyl)-2-oxoethyl)imidazolidine-2,4,5-trione]: at T1R1/T1R3 receptor [1], the T1R1/T1R3 agonist entry is given as “No”. Further, the “T1R1/T1R3 PAM” value at T1R1/T1R3 receptor [2] is “No”.
As to `O=C(O)[C@H](Cc1ccc(O)cc1)NCc1ccccc1` [Formula 22, N-Benzyl-L-Tyrosine], the T1R1/T1R3 agonist result at T1R1/T1R3 receptor [1] is “No”. Besides, the “T1R1/T1R3 PAM” value at T1R1/T1R3 receptor [2] is “No”.
As for `O=C1CC(=O)N(Cc2ccccc2)C(=O)N1Cc1ccccc1` [Formula 24, 1,3-dibenzylpyrimidine-2,4,6(1H,3H,5H)-trione], the T1R1/T1R3 agonist entry at T1R1/T1R3 receptor [1] is reported as “Yes”. Also, the “T1R1/T1R3 PAM” value at T1R1/T1R3 receptor [2] was “No”.
Regarding `COC(=O)[C@H](CC(C)C)NCc1ccccc1.Cl` [Formula 18, Benzyl-L-leucine methyl ester hydrochloride], the T1R1/T1R3 agonist entry at T1R1/T1R3 receptor [1] is given as “Yes”. Besides, the “T1R1/T1R3 PAM” value at T1R1/T1R3 receptor [2] is recorded as “Yes”.
Regarding `Cc1ccc(CNC(Cc2ccccc2)C(=O)O)cc1` (stereo not shown) [Formula 23, 2-((4-methylbenzyl)amino)-3-phenylpropanoic acid], on T1R1/T1R3 receptor [1], the T1R1/T1R3 agonist result is reported as “No”. At T1R1/T1R3 receptor [2], the “T1R1/T1R3 PAM” value was “No”.
`O=C(CN1C(=O)C(=O)N(CCc2cccs2)C1=O)c1ccccc1` [Formula 6, 1-(2-oxo-2-phenylethyl)-3-(2-(thiophen-2-yl)ethyl)imidazolidine-2,4,5-trione]: the T1R1/T1R3 agonist entry on T1R1/T1R3 receptor [1] is recorded as “No”. Besides, the “T1R1/T1R3 PAM” value at T1R1/T1R3 receptor [2] is listed as “No”.
As for `O=C(CN1C(=O)C(=O)N(Cc2ccccc2)C1=O)c1ccc(Br)cc1` [Formula 3, 1-benzyl-3-(2-(4-bromophenyl)-2-oxoethyl)imidazolidine-2,4,5-trione], the T1R1/T1R3 agonist result at T1R1/T1R3 receptor [1] is “No”. Further, on T1R1/T1R3 receptor [2], the “T1R1/T1R3 PAM” value is recorded as “No”.
For `Cl.N[C@@H](Cc1ccccc1)C(=O)OCc1ccccc1` [Formula 20, L-Phenylalanine benzyl ester hydrochloride], the T1R1/T1R3 agonist entry at T1R1/T1R3 receptor [1] is listed as “Yes”. Also, the “T1R1/T1R3 PAM” value at T1R1/T1R3 receptor [2] was “Yes”.
`CCCC(CCC)NC(=O)c1ccc2c(c1)OCO2` [Formula 14, N-(heptan-4-yl)benzo[d][1,3]dioxole-5-carboxamide]: the T1R1/T1R3 agonist entry at T1R1/T1R3 receptor [1] is “Yes”. Further, the “T1R1/T1R3 PAM” value on T1R1/T1R3 receptor [2] is reported as “Yes”.
Consider `COC(=O)[C@H](Cc1ccccc1)NCc1ccccc1.Cl` [Formula 15, N-Benzyl-L-phenylalanine methyl ester hydrochloride], for which the T1R1/T1R3 agonist result at T1R1/T1R3 receptor [1] was “Yes”. On T1R1/T1R3 receptor [2], the “T1R1/T1R3 PAM” value is recorded as “Yes”.
Consider `COC(=O)[C@@H](Cc1ccccc1)NCc1ccccc1.Cl` [N-Benzyl-D-Phenylalanine methyl ester hydrochloride], for which the “agonist profile assessment” value on T1R1/T1R3 receptor [1] is “agonist”. At T1R1/T1R3 receptor [2], the “PAM profile assessment (PAM activity)” value is given as “PAM activity”.
In the same order, the values of `COC(=O)[C@H](CC(C)C)NCc1ccccc1.Cl` [Benzyl-L-leucine methyl ester hydrochloride] are “agonist” and “PAM activity”.
Regarding `N#Cc1cccc(NC(=O)CN2C(=O)C(=O)N(Cc3ccccc3)C2=O)c1` [Formula 9, 2-(3-benzyl-2,4,5-trioxoimidazolidin-1-yl)-N-(3-cyanophenyl)acetamide], the T1R1/T1R3 agonist entry at T1R1/T1R3 receptor [1] is listed as “No”. Besides, the “T1R1/T1R3 PAM” value at T1R1/T1R3 receptor [2] was “No”.
Regarding `COc1ccccc1C(=O)CN1C(=O)C(=O)N(Cc2cccs2)C1=O` [Formula 10, 1-(2-(2-methoxyphenyl)-2-oxoethyl)-3-(thiophen-2-ylmethyl)imidazolidine-2,4,5-trione], the T1R1/T1R3 agonist result at T1R1/T1R3 receptor [1] is given as “No”. In addition, the “T1R1/T1R3 PAM” value at T1R1/T1R3 receptor [2] is on record as “No”.
Take `N[C@@H](Cc1ccc(O)cc1)C(=O)OCc1ccccc1` [Formula 21, L-Tyrosine benzyl ester]: at T1R1/T1R3 receptor [1], the T1R1/T1R3 agonist entry is listed as “No”. In addition, the “T1R1/T1R3 PAM” value on T1R1/T1R3 receptor [2] is reported as “No”.
Regarding `O=C(CN1C(=O)C(=O)N(Cc2ccccc2)C1=O)c1ccc2c(c1)OCCO2` [Formula 4, 1-benzyl-3-(2-(2,3-dihydrobenzo[b][1,4]dioxin-6-yl)-2-oxoethyl)imidazolidine-2,4,5-trione], on T1R1/T1R3 receptor [1], the T1R1/T1R3 agonist result is listed as “No”. For the same molecule, the “T1R1/T1R3 PAM” value at T1R1/T1R3 receptor [2] is “No”.
